Results published in patent publication US20180184680A1, “LONG-LASTING COOLING FORMULATIONS” (WM. WRIGLEY JR. COMPANY, priority 2015, published 2018).

Key:
descriptive panel (N=8) = test: Consumer-Descriptive Analysis panel study of compressed mints; assay type: in vivo, human
Experimental: All samples were prepared in a pilot plant under good manufacture practice conditions. Samples made for consumer descriptive analysis passed a metal detector test. One sample of each mint formulation was further evaluated in both Expert Sensory Analysis (ESA) and Descriptive Analysis tests. A Consumer-Descriptive Analysis panel study was conducted. Four mints containing various level of cooling blend were formulated at a pilot plant. During the test, each member of the descriptive panel (N=8) sucked one piece of mint until it completely dissolved. During the mint consumption, panelists evaluated various cooling attributes including oral cool and nasal cool at several specified time points. Flavor and sweetener intensity, bitterness, and off-taste were also evaluated. Panelists continued the evaluation even after mint consumption was complete, for a total of 20 minutes from the beginning of the test.

Subjects = test: ESA panel evaluation of compressed mints (cooling strength, flavor strength, bitterness/off-taste); assay type: in vivo, human; details: for upfront cooling intensity: first 3 minutes, 9-point scale, WS-5 500 ppm
Experimental: All samples were prepared in a pilot plant under good manufacture practice conditions. Samples made for consumer descriptive analysis passed a metal detector test. One sample of each mint formulation was further evaluated in both Expert Sensory Analysis (ESA) and Descriptive Analysis tests.
Compressed mint samples were evaluated for cooling strength, flavor strength and bitterness, or off-taste in a randomized sampling order by a 9-point scale: 0 being the lowest and 9 being the highest. Subjects were allowed to suck the compressed mint (without biting or chewing) until completely dissolved. The coolant attributes were measured at different time points up to 15 minutes.
The level of WS-12 was increased to levels from 250 to 1000 ppm (0.025%-0.1% w/w) and additional ESA evaluations were conducted.

[1] = compressed mint, WS-12 1000 ppm, WS-5 and WS-12 250 ppm of each

CNC(=O)C(C)(C(C)C)C(C)C [WS-23, N,2,3-Trimethyl-2-isopropylbutamide, reference compound]
oral cooling (descriptive panel (N=8); after the first 4 minutes, WS-23 0.1%): lost cooling strength and became similar to the control
oral cooling (descriptive panel (N=8); first 4 minutes, WS-23 0.1%): superior oral cooling

CCOC(=O)CNC(=O)C1CC(C)CCC1C(C)C (stereo not drawn) [WS-5, N-(Ethoxycarbonylmethyl)-3-p-menthanecarboxamide]
upfront cooling intensity (Subjects; [1]): strong cooling intensity upfront
oral cooling sustained after consumption (descriptive panel (N=8); compressed mint, WS-5): up to 10 minutes
oral cooling (descriptive panel (N=8); during the 15 minutes, vs control, WS-5 500 ppm, WS-5/WS-12 250/250 ppm): higher oral cooling

COc1ccc(NC(=O)[C@@H]2C[C@H](C)CC[C@H]2C(C)C)cc1 [WS-12, (1R,2S,5R)-N-(4-Methoxyphenyl)-5-methyl-2-(1-methylethyl)cyclohexanecarboxamide]
cooling duration (Subjects; compressed mint, WS-12 1000 ppm, measured up to 15 minutes): > 15 min
upfront cooling intensity (Subjects; [1]): very low upfront cooling
cooling after 6 min (Subjects; compressed mint, compared to mint comprising WS-23 (1000 ppm), WS-12 1000 ppm, WS-5 and WS-12 250 ppm of each): significant more cooling
cooling intensity, flavor intensity or duration of cooling versus the control mints (Subjects; compressed mints, low level of WS-12 (25-100 ppm)): No significant difference
